These results are taken from US12590100B2, “Tetrahydro-spiroindoline-pyrrolopyrrole-triones inhibitors of the NRF2-β-TrCP interaction for use in the treatment of fatty liver disease” (Universidad Autonoma De Madrid, priority 2021, dated 2026).

The subject of assay [1] is transcriptional activity of NRF2. The experiment in a line: ARE luciferase reporter assay in MCF-7 c32 ARE-LUC cells. The assay is classed as cell-based. The settings on record: 9 μM, 16 h. Here is the method: FIG. 4. […] MEFs in serum-depleted conditions were subjected to (A-C) 1 μM, 3 μM, or 10 μM of PHAR and 10 μM of SFN as a positive control for 16 h; or (D-F) 10 μM of PHAR for the indicated times. In both experiments, 0.1% DMSO was used as a vehicle. A), representative immunoblots of NRF2, HO1, KEAP1, LAMINB, and GAPDH as loading controls. B) and C), densitometric analysis of NRF2 and HO1 protein levels of the representative immunoblots depicted in (A), expressed as a ratio of NRF2/LAMINB or HO1/GAPDH. The data is depicted as means±SEM (n=3). Statistical analysis was performed with one-way ANOVA followed by the Bonferroni test to check inter-group differences. *p<0.05; ***p<0.001 vs. 0. D), representative immunoblots of NRF2, HO1, KEAP1, LAMINB, and GAPDH as loading controls. E) and F), Densitometric analysis of NRF2 and HO1 protein levels of the representative immunoblots of (D), expressed as a ratio of NRF2/LAMINB or HO1/GAPDH. The data is depicted as means±SEM (n=3). Statistical analysis was performed with one-way ANOVA followed by the Bonferroni test to check inter-group differences. *p<0.05; ***p<0.001 vs. 0. […] Luciferase activity was measured after 16 h of treatment. […] The mRNA levels of Hmox1, Nqo1, Aox1, Glc, and Gclm after 8 h of treatment were determined by means of pRT-PCR and normalized by means of average LaminB, Gapdh, and β-actin. […]
Background: A reporter such as luciferase makes a cellular process visible.

Assay [2] deals with β-TrCP-NRF2 interaction. The experiment in a line: NRF2 levels after LY294002 (PI3K inhibition, GSK-3β activation) in Keap1−/− MEFs. The assay is classed as cell-based, mouse. The note with it: PHAR 10 μM 1 h, then LY294002 20 μM 15-240 min.
The subject of assay [3] is Raw264.7 cells. The experiment in a line: Inflammatory response in LPS-stimulated Raw264.7 cells. The assay is classed as cell-based, mouse. The settings on record: Raw264.7, PHAR 10 μM 8 h pretreatment. Here is the method:
FIG. 7. […] Serum-deprived Raw264.7 cells were pretreated with 10 μM of PHAR for 8 h. 0.1% DMSO was used as a vehicle. After that period of time, the cells were treated with 100 ng/ml of LPS for the indicated times. A), representative immunoblots of NRF2, HO1, p65, pre-IL1β, COX2, NOS2, and GAPDH as a loading control. The black arrow tip marks the specific band of p65 and NOS2. B), densitometric analysis of HO1 and NRF2 protein levels of the representative immunoblots of (A), expressed as a ratio of protein/GAPDH levels. The data is depicted as means±SEM (n=3). Statistical analysis was performed with two-way ANOVA followed by the Bonferroni test to compare inter-group differences. ***p<0.001 vs LPS. C), Densitometric analysis of pre-IL1β, COX2, and NOS2 protein levels of the representative immunoblots of (A), expressed as a ratio of protein/GAPDH levels. The data is depicted as means±SEM (n=3). Statistical analysis was performed with two-way ANOVA followed by the Bonferroni test to compare inter-group differences. ***p<0.001 vs. LPS. D) and E), the mRNA levels of Il1β, Cox2, Nos2, Il6, and Tnfα were determined by means of qRT-PCR and normalized by means of average Gapdh, Tbp, and β-actin. The data is depicted as mean±SEM (n=3). Statistical analysis was performed with two-way ANOVA followed by the Bonferroni test to check inter-group differences. ***p<0.001 vs. LPS. […] The cells were then stimulated with LPS (100 ng/ml, 1, 2, or 4 h) to trigger an inflammatory response.

As to `O=C1[C@@H]2[C@H](Cc3c[nH]c4ccccc34)N[C@]3(C(=O)Nc4ccc(Cl)cc43)[C@@H]2C(=O)N1c1ccc2c(c1)OCCO2` [PHAR], in assay [1], the “increase in luciferase activity” value is on record as approximately 4 fold. The “NRF2 levels under LY294002 after PHAR pre-treatment” value in assay [2] was “prevented LY294002-induced NRF2 degradation, but furthermore favored NRF2 accumulation”. In addition, in assay [3] (LPS 100 ng/ml), the “Il6 and Tnfa induction” value is reported as “significantly milder induction”; the “NRF2 and HO-1 levels” value is “increased NRF2 and HO-1 levels”. The “inflammatory parameters by immunoblot (pre-IL1β, COX2, NOS2) or mRNA (Il1β, Cox2, Nos2)” value in assay [3] (LPS 100 ng/ml 4 h) is “mitigated the increase in inflammatory parameters”.
